According to patent US10959984B2, “Methods for treating cancer with RORγ inhibitors” (THE REGENTS OF THE UNIVERSITY OF CALIFORNIA, priority 2015, dated 2021):

Tests used:
[1] = tested on: A549 human lung cancer cells xenograft tumors; experiment: A549 lung cancer xenograft tumor growth; format: in vivo, mice; conditions: A549 xenografts, 5 mg/kg/day i.p., six weeks
Protocol: FIG. 32A: Cell viability, as measured by Cell-Titer GLO, of different lung cancer cells treated with the indicated concentrations of SR2211 for 4 days. FIG. 32B: Cell viability, as measured by Cell-Titer GLO, of different lung cancer cells treated with the indicated concentrations of GSK805 for 4 days. FIG. 32C: Half-maximal inhibitory concentration (IC50) for SR2211 and GSK805 in indicated lung cancer cell lines treated for 4 days. FIG. 32D: Effects of the indicated treatments (SR2211, 5 mg/kg i.p. five times per week; or vehicle) on the growth of lung cancer A549 xenografts (n=6 mice per group). Treatment started when A549 tumors reached approximately 100 mm^3. Mean tumor volume±s.e.m., Mean tumor weight±s.e.m. and representative tumor images are shown. P<0.01.

[2] = tested on: TNBC cells including MDA-MB468, MDA-MB231, BT20, SUM149, and HCC1937; experiment: CellTiter-GLO viability, triple-negative breast cancer cells; format: cell-based; conditions: Homo sapiens, 96 h, treated for 4 days
Protocol: (§1) For cell viability, cells were seeded in 96-well plates at 1500-2500 cells per well (optimum density for growth) in a total volume of 100 μl media. Serially diluted compounds in […] of media were added to the cells 12 hours later. After 4 days of incubation, Cell-Titer GLO reagents (Promega) were added and luminescence was measured on GLOMAX microplate luminometer (Promega), according to the manufacturer's instructions. All experimental points were set up as sextuplicate as biological replication and the entire experiments were repeated three times. The data are presented as percentage of viable cells with vehicle treated cells set as 100. The estimated in vitro IC50 values were calculated using GraphPad Prism 6 software.
(§2) Using a CellTiter-GLO assay, the viability of cells of different cancer types was measured after treatment with different concentrations of RORγ small molecule inhibitors for 4 days.

[3] = tested on: ER-positive cells, such as MCF-7 and T47D; experiment: CellTiter-GLO viability, ER-positive breast cancer cells; format: cell-based; conditions: Homo sapiens, 96 h; ER-positive cells MCF-7 and T47D, treated for 4 days
Protocol: as §1, §2

AR-negative PCa cells = experiment: Prostate cancer cell growth and survival, AR-negative cells; format: cell-based, human
Protocol: as §1
For apoptosis, Terminal deoxynucleotidyl transferase-mediated dUTP nick end labeling (TUNEL) was performed by using in situ cell death detection kit (Roche) as previously described^56. The results are expressed as a percentage of apoptotic cell number/total cell number. Caspase-3/7 activity was measured using a luminescent caspase-Glo 3/7 assay kit (Promega Corporation, Madison, USA) following the manufacturer's instructions. For cell growth, cells were seeded in 6-well plates at 2×10^5 per well and treated as indicated. Total viable cell numbers were counted using a Coulter cell counter. For colony formation, 800 cells were seeded in a well of 6-well plates and cultured for 14 days with the medium changed every 3 days. When the cell clone grew visible, the medium was removed and the cells were fixed with […] formalin for 10 minutes. Then the plates were washed with PBS for two times and the cell colonies were stained with 0.2% crystal violet (in 10% formalin) for 15 minutes. The numbers of cell colonies were counted after washed 5 times by PBS. The above assays were performed in triplicates and the entire experiments were repeated three times.

Compound: OC(c1ccc(-c2ccc(CN3CCN(Cc4ccncc4)CC3)cc2)c(F)c1)(C(F)(F)F)C(F)(F)F [SR2211, 2-Fluoro-4′-[[4-(4-pyridinylmethyl)-1-piperazinyl]methyl]-a,a-bis (trifluoromethyl)-[1,1′-biphenyl]-4-methanol]
- tumor growth of xenograft lung tumor model [1]: strongly inhibited tumor growth
- IC50 [2]: 1 to 10 µM
- IC50 [3]: > 10 µM
- inhibition of cell growth and survival in AR-negative cells (AR-negative PCa cells): not in the AR-negative cells
